Consider 16 compounds from BindingDB's records for doi:10.1021/jm00112a034 (Abbott Laboratories, 1991).

The target in this experiment is dopamine D1 receptor (Cyprinus carpio). Briefly: Concentration required to inhibit 50% dopamine receptor D1 activity using cell free homogenate of carp retina.

By EC50 is commonly meant the concentration giving half of the maximal effect. Read a high EC50 as a less potent agent. Consider `NC[C@@H]1OC(c2ccc(Br)cc2)Cc2c1ccc(O)c2O` (stereo partly specified), for which the midpoint of the response, the EC50, lay at 0.001 µM.

As to `NC[C@@H]1OC(CCc2ccccc2)Cc2c1ccc(O)c2O` (stereo partly specified), the EC50 was determined as 0.0052 µM.

As to `NC[C@@H]1OC(COc2ccccc2)Cc2c1ccc(O)c2O` (stereo partly specified), the EC50 turned out to be 0.024 µM.

For `OCCCNC[C@@H]1OC(C2CCCCC2)Cc2c1ccc(O)c2O` (stereo partly specified), the midpoint of the response, the EC50, lay at 1.74 µM.

The compound `CCCCC1Cc2c(ccc(O)c2O)[C@H](CN)O1` (stereo partly specified) yielded an EC50 of 0.0063 µM.

In turn, `Oc1ccc2c(c1O)CC(C1CCCCC1)O[C@H]2CNC1CC1` (stereo partly specified) gave an EC50 of 0.124 µM.

`COc1cccc(C2Cc3c(ccc(O)c3O)[C@H](CN)O2)c1` (stereo partly specified) yielded an EC50 of 0.0064 µM.

Compound `C#CCNC[C@@H]1OC(C2CCCCC2)Cc2c1ccc(O)c2O` (stereo partly specified) returned an EC50 of 0.013 µM.

With `NC[C@@H]1OC2(CCCCC2)Cc2c1ccc(O)c2O`, it took 0.069 µM to reach a half-maximal effect (EC50).

`CCCCCCC1Cc2c(ccc(O)c2O)[C@H](CN)O1` (stereo partly specified) showed a concentration giving a half-maximal response (EC50) of 0.014 µM.

`NC[C@@H]1OC(CC2CCCC2)Cc2c1ccc(O)c2O` (stereo partly specified) had an EC50 of 0.0067 µM.

Compound `NC[C@@H]1OC(Cc2ccccc2)Cc2c1ccc(O)c2O` (stereo partly specified) registered an EC50 of 0.034 µM.

For `NC[C@@H]1OC(c2ccc(I)cc2)Cc2c1ccc(O)c2O` (stereo partly specified), the EC50 worked out at 0.002 µM.

The compound `NC[C@@H]1OC(COCc2ccccc2)Cc2c1ccc(O)c2O` (stereo partly specified) registered an EC50 of 0.089 µM.

For `CC[C@@H]1Cc2c(ccc(O)c2O)[C@H](CN)O1`, the EC50 is 0.142 µM.

The compound `CC[C@H]1Cc2c(ccc(O)c2O)[C@H](CN)O1` came in with an EC50 of 0.232 µM.
